Measurements published in patent US5582813A, “Iodine-containing fluorocarbon contrast agents” (Alliance Pharmaceutical Corp., priority 1993, dated 1996).

Legend:
[1] = In vitro opacity to X-rays of compounds in hexane solution (Philips Tomoscan LX); format: physicochemical; conditions: 0.34 mol/L in hexane; 120 kV, 175 mA
Procedure: In order to determine the relative radiopacity of the compounds used in the present invention to X-rays, we undertook an in vitro study to compare the radiopacity of the above compound (IA) in relation to the radiopacity of perfluorooctyl bromide.
A solution of Compound IA was prepared having a concentration of 0.34 mol/L in hexane. A second solution of perfluorooctyl bromide (PFOB) with the same concentration in hexane was also prepared. The opacity to X-rays of the respective compounds in the hexane solutions was determined using a Philips Tomoscan LX 120 kV, 175 mA apparatus.
Following the procedure described in Example 1, we also measured the opacity to X-rays of Compound IIIA. As described, a solution of Compound IIIA was prepared at a concentration of 0.34 mol/L in hexane.
We also measured the radiopacity of each of the compositions using the in vitro test described in Example 1, where 0.34 mol/L solutions of the compositions were prepared in hexane and scanned using a Philips Tomoscan LX 120 kV, 175 mA apparatus.

liver = test: In vivo radiopacity, rabbit liver imaging; design: species or system rabbits; conditions: 0.39 g of Compound IA
Procedure: In order to determine the ability of the compositions of the present invention to operate as effective contrast enhancement agents, we undertook an in vivo study in rabbits to image their livers.
In the study, 3 rabbits were injected with the emulsion of Example 5 at a dose of 3 mL of emulsion per kg of animal, i.e., 2.34 g/kg (4.2 mM of Compound IA), at the rate of 0.5 mL/min.
The radiopacity of the liver and spleen of each rabbit was then measured. The animals were held in a cage and radiopacity was measured using a Philips Tomoscan LX scanner at 120 kV and 175 mA, with continuous 5 mm scans slice with 7 mm intervals. The duration of each scan was 1.2 seconds. These measurements were taken before the injection, then at 24 hours, 48 hours, 7 days, 15 days, and 30 days after the injection.
The results from this study are shown in FIG. 2, which is a bar graph showing the comparison between the radiopacity of the liver (as determined by the increase in Hounsfield units) observed with the emulsion of Example 5 and a PFOB emulsion (Example 6), at 24 hours and 48 hours after injection. The concentration of the emulsion of Example 5 was at a dose of […]. The concentration of the PFOB emulsion was at a dose of 2.7 g/kg body weight (5.4 mM of Perflubron/kg).

mice = test: Toxicity, intraperitoneal injection in mice; format: in vivo; conditions: 10 mice, about 45 g/kg, one month
Description: (§1) Beyond radiopacity and stability, the compounds used in the present invention are biocompatible. They are tolerated in high doses in animals. For example, in intraperitoneal administration in mice, the mice were still alive at the end of the protocol, one month post injection, even after doses of up to 45 g/kg of the iodinated fluorinated compounds used in the present invention had been injected. Further, in intravenous administration to mice of the compounds used in the present invention in emulsified form, the mice lived past the end of the protocol, one month post injection of doses up to 8 g/kg.
(§2) In order to determine the toxicity of Compound IA, we injected mice intraperitoneally with the compound. In the experiment, 10 mice were interperitoneally injected with a dose of about 45 g/kg per animal of Compound IA.
(§3) Compound IIIA was also tested for toxicity, following the procedure described in Example 2. A similar tolerance of greater than 45 g/kg animal weight was observed.
(§4) Each of the composition were intraperitoneally injected into mice at doses of 50 g/kg. All of the mice so injected survived and were alive past the end of the protocol, 30 days post injection.

[2] = Toxicity, intraperitoneal injection in mice; format: in vivo; conditions: mouse, in vivo, ip; mice, intraperitoneal, g/kg animal weight; read-out: tolerance
Description: as §1, §2, §3, §4

CCCCCCC(I)=CC(F)(F)C(F)(F)C(F)(F)C(F)(F)C(F)(F)C(F)(F)F [Compound IA, C6 F13 --CH=CI--C6 H13]
radiopacity relative to PFOB [1]: approximately four | amount of Perflubron giving equivalent contrast enhancement, relative to Compound IA (liver): 7 times | survival after intraperitoneal injection (mice): all animals survived and were thriving, showing no ill effects

CCCCCCC(I)=CC(F)(F)C(F)(F)C(F)(F)C(F)(F)C(F)(F)C(F)(F)C(F)(F)C(F)(F)F [Compound IIIA, C8 F17 --CH=CI--C6 H13]
opacity to X-rays (in words) [1]: A similar opacity was observed for Compound IIIA as was observed for Compound IA | MTD [2]: > 45000 mg/kg
